According to patent US9096591B2, “Tetracyclic compounds” (Medivation Technologies, Inc., priority 2007, dated 2015):
Read-outs that look alike come from different tables or passages of the source.

How the values were obtained:
[1] = molecular target: T1, human recombinant serotonin (5-Hydroxytryptamine) 5-HT2A receptor (Homo sapiens, UniProt P28223); test: Serotonin 5-HT2A radioligand binding ([3H]Ketanserin); settings: for Inhibition of ligand binding, Ser. 5-HT2A: percent inhibition of specific binding
T1 construct: expressed in transfected cells; host or cells: CHO-K1 cells
T1 sequence (P28223 whole entry): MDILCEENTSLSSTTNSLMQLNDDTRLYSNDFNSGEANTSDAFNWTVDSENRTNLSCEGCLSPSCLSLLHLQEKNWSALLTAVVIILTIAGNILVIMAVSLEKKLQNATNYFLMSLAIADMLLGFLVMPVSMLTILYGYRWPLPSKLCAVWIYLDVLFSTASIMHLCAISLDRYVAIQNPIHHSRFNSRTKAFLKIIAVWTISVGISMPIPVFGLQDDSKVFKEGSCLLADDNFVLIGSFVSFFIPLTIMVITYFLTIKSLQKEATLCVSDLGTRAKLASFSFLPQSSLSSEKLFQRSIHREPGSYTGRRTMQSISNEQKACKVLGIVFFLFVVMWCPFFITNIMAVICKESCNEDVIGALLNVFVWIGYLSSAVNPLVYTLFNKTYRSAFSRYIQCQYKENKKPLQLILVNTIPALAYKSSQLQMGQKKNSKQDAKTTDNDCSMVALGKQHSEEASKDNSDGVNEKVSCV
Protocol: Compounds of the invention were incubated with 0.5 nM [^3H]Ketanserin for 60 minutes at 25° C. Non-specific binding was estimated in the presence of 1 μM Mianserin. Receptor proteins were filtered and washed, the filters were then counted to determine [^3H]Ketanserin specifically bound. […] Biochemical assay results are presented as the percent inhibition of specific binding in Table 6.

[2] = molecular target: T2, human recombinant serotonin (5-Hydroxytryptamine) 5-HT2C receptor (Homo sapiens, UniProt P28335); test: Serotonin 5-HT2C radioligand binding ([3H]Mesulergine); set-up: Inhibition of ligand binding, Ser. 5-HT2C: concentration or dose not given beside the values; settings: for Inhibition of ligand binding, Ser. 5-HT2C: percent inhibition of specific binding
T2 construct: expressed in transfected cells; host or cells: CHO-K1 cells
T2 sequence (P28335 33-458): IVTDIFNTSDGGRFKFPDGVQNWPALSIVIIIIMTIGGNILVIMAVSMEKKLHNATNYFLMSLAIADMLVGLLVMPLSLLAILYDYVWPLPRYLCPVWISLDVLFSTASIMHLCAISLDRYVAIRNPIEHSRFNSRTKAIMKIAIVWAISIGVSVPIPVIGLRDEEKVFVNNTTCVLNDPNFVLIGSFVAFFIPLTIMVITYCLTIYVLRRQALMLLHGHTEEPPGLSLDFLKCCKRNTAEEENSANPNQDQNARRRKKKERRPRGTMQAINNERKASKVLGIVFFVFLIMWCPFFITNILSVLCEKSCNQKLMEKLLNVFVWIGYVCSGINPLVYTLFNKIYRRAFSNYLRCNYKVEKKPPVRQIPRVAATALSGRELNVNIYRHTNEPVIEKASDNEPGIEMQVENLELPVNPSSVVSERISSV
Protocol: Compounds of the invention were incubated with 1 nM [^3H]Mesulergine for 60 minutes at 25° C. Non-specific binding was estimated in the presence of 1 μM Mianserin. Receptor proteins were filtered and washed, the filters were then counted to determine [^3H]Mesulergine specifically bound. […] Biochemical assay results are presented as the percent inhibition of specific binding in Table 6.

[3] = molecular target: T3, human recombinant adrenergic α2A receptor (Homo sapiens, UniProt P08913); test: Adrenergic α2A radioligand binding ([3H]MK-912); set-up: Inhibition of ligand binding, Adren. alpha2A: concentration or dose not given beside the values; settings: for Inhibition of ligand binding, Adren. alpha2A: percent inhibition of specific binding
T3 construct: expressed in transfected cells; host or cells: insect Sf9 cells
T3 sequence (P08913 1-465): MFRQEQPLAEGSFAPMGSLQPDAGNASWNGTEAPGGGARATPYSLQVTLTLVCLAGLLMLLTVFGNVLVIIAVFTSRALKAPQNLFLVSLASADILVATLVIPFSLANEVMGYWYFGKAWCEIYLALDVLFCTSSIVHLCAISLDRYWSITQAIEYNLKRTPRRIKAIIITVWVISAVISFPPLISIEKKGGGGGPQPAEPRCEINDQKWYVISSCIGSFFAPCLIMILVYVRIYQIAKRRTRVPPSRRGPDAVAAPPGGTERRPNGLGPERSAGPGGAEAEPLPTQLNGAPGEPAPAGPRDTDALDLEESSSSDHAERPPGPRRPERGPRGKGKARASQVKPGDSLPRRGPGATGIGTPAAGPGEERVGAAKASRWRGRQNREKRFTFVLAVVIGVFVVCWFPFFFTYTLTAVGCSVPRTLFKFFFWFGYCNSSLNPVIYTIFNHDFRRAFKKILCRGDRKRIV
Outline: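 Membranes from Sf9 cells expressing the receptor were incubated with 1 nM [3H]MK-912 for 60 minutes at 25° C in 50 mM Tris-HCl pH 7.4, 12.5 mM MgCl2, 2 mM EDTA. 10 μM WB-4101 defined non-specific binding. Values are percent inhibition of specific bound radioactivity after filtration.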

[4] = molecular target: T4, human recombinant serotonin (5-Hydroxytryptamine) 5-HT6 receptor (Homo sapiens, UniProt P50406); test: Serotonin 5-HT6 radioligand binding ([3H]LSD); set-up: Inhibition of ligand binding, Ser. 5-HT6: concentration or dose not given beside the values; settings: for Inhibition of ligand binding, Ser. 5-HT6: percent inhibition of specific binding
T4 construct: expressed in transfected cells; host or cells: human HeLa cells
T4 sequence (P50406 whole entry): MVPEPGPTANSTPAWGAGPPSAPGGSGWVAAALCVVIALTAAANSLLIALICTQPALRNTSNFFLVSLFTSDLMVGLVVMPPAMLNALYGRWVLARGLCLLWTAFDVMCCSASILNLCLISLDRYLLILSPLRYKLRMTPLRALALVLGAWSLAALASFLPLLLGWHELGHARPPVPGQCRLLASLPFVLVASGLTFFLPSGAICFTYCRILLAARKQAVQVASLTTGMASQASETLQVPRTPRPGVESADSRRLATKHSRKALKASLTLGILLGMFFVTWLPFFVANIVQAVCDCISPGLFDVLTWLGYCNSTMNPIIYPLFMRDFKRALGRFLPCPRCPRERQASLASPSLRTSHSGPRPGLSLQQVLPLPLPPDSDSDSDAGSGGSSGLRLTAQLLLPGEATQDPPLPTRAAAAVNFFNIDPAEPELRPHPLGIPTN
Source text: Receptor proteins were filtered and washed, the filters were then counted to determine [3H]LSD specifically bound. […] Biochemical assay results are presented as the percent inhibition of specific binding in Table 6.

[5] = molecular target: T5, human recombinant histamine H2 receptor (Homo sapiens, UniProt P25021); test: Histamine H2 radioligand binding ([125I]Aminopotentidine); settings: for inhibition at 0.3 µM: 0.3 μM compound
T5 construct: expressed in transfected cells; host or cells: CHO-K1 cells
T5 sequence (P25021 whole entry): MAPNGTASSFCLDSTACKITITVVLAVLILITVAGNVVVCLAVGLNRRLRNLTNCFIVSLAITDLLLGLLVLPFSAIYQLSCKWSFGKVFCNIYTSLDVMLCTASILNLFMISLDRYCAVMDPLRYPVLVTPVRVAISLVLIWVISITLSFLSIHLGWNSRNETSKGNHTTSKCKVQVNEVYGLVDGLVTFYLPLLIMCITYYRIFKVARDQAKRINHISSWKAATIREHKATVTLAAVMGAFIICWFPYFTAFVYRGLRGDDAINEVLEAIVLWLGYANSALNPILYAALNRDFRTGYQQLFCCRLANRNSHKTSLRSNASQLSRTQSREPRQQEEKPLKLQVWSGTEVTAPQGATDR
Outline: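 This radioligand binding assay measured displacement of [125I]Aminopotentidine from recombinant human histamine H2 receptors. Compounds were dissolved in 1% DMSO vehicle. Specific binding was calculated by subtracting non-specific binding, defined using 3 μM Tiotidine, and activity was reported as percentage inhibition of that specific binding.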

[6] = molecular target: T6, human recombinant dopamine D2L receptor (Homo sapiens, UniProt P14416); test: Dopamine D2L radioligand binding ([3H]Spiperone); settings: percent inhibition of specific binding
T6 construct: expressed in transfected cells; host or cells: CHO cells
T6 sequence (P14416 whole entry): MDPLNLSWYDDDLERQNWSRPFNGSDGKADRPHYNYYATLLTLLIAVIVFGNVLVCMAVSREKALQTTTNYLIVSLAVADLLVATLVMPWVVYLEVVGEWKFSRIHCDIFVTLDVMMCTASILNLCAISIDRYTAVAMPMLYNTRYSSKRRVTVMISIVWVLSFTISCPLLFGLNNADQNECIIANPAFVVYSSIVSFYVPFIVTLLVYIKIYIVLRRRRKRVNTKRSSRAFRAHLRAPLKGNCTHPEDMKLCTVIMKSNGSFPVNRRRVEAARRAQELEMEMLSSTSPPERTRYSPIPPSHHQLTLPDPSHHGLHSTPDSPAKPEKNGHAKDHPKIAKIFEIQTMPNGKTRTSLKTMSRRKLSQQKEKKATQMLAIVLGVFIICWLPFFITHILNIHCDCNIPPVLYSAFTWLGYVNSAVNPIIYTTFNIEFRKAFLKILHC
Protocol: Non-specific binding was estimated in the presence of 10 μM Haloperidol. Receptor proteins were filtered and washed, the filters were then counted to determine [^3H]Spiperone specifically bound. […] Biochemical assay results are presented as the percent inhibition of specific binding in Table 6.

[7] = molecular target: T7, Serotonin (5-Hydroxytryptamine) 5-HT7 (Homo sapiens, UniProt P34969); test: Serotonin 5-HT7 radioligand binding ([3H]LSD); set-up: Inhibition of ligand binding, Ser. 5-HT7: concentration or dose not given beside the values; settings: for Inhibition of ligand binding, Ser. 5-HT7: percent inhibition of specific binding
T7 construct: expressed in transfected cells; host or cells: CHO cells
T7 sequence (P34969 whole entry): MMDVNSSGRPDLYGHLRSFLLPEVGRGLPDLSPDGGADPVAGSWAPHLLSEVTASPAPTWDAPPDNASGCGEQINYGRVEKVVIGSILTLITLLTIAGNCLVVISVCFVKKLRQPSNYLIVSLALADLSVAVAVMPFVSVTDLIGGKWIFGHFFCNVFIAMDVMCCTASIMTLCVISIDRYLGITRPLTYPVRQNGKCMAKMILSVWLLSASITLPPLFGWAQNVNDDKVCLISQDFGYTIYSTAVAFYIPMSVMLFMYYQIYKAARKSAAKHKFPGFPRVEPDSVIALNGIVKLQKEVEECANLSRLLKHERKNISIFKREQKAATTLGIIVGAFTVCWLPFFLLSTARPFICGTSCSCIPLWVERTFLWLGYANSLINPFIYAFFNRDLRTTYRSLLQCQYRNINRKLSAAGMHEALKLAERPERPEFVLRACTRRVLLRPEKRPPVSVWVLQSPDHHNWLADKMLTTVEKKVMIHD
Protocol: Lysergic acid diethylamide (LSD) for 2 hours at 25° C. […] Receptor proteins were filtered and washed, the filters were then counted to determine [^3H]LSD specifically bound. […] Biochemical assay results are presented as the percent inhibition of specific binding in Table 6.

[8] = 0.1 nM [125I]Aminopotentidine, read-out: Histamine Binding H2, percent inhibition of specific binding
[9] = 1 μM compound, 0.1 nM [125I]Aminopotentidine, read-out: Histamine Binding H2, percent inhibition of specific binding
[10] = percent inhibition of specific binding, screened at 1 μM, read-out: Inhibition of ligand binding, Hist. H2

Row | SMILES | Inhibition of ligand binding, Ser. 5-HT2A [1] | Inhibition of ligand binding, Ser. 5-HT2C [2] | Inhibition of ligand binding, Adren. alpha2A [3] | Inhibition of ligand binding, Ser. 5-HT6 [4] | inhibition at 0.1 µM ([5]; 0.1 μM compound, 0.1 nM [125I]Aminopotentidine, read-out: Histamine Binding H2, percent inhibition of specific binding) | inhibition at 0.3 µM [5, 8] | inhibition at 1 µM [5, 9] | inhibition at 1 µM [5, 10] | Inhibition of ligand binding, Dop. D2L [6] | Inhibition of ligand binding, Ser. 5-HT7 [7] | Ser. 5-HT2A ([1]; inhibition profile) | Ser. 5-HT2C ([2]; inhibition profile) | Adren. alpha2A ([3]; inhibition profile) | Ser. 5-HT6 ([4]; inhibition profile) | Hist. H2 ([5]; inhibition profile) | Ser. 5-HT7 ([7]; inhibition profile)
1 | Cc1ccc(CCn2c3c(c4ccccc42)CN(C)CC3)cc1 [Compound 1, 2,3,4,5-tetrahydro-2-methyl-5-(4-methylphenethyl)-1H-pyrido[4,3-b]indole] | 95% | 95% | 99% | 87% | 33% | 57% | 82% | 82% | 62% | 98% | – | – | – | – | – | –
2 | CCOC(=O)N1CCc2c(c3cc(Br)ccc3n2CCc2ccc(C)nc2)C1 [Compound 18, ethyl 8-bromo-3,4-dihydro-5-(2-(6-methylpyridin-3-yl)ethyl)-1H-pyrido[4,3-b]indole-2(5H)-carboxylate] | 5% | −14% | −10% | 6% | – | – | 1% | 1% | −7% | 10% | – | – | – | – | – | –
3 | Cc1ccc2c(c1)c1c(n2CCc2ccncc2)CCN(C)C1 [Compound 22, 2,3,4,5-tetrahydro-2,8-dimethyl-5-(2-(pyridin-4-yl)ethyl)-1H-pyrido[4,3-b]indole] | 81% | 87% | 72% | – | – | 29% | 49% | 53% | 27% | 99% | – | – | – | – | – | –
4 | Cc1ccc2c(c1)c1c(n2CCC(=O)N2CCC(N)CC2)CCN(C)C1 [Compound 231, 1-(4-aminopiperidin-1-yl)-3-(1,2,3,4-tetrahydro-2,8-dimethylpyrido[4,3-b]indol-5-yl)propan-1-one] | 5% | 49% | 29% | 3% | – | – | 4% | 4% | – | 0% | – | – | – | – | – | –
5 | Cc1ccc2c(c1)c1c(n2CCc2ccc(C)nc2)C(Br)C(=O)N(C)C1 (stereo not drawn) [Compound 232, 4-bromo-1,2-dihydro-2,8-dimethyl-5-(2-(6-methylpyridin-3-yl)ethyl)-4H-pyrido[4,3-b]indol-3(5H)-one] | −10% | 2% | 2% | −7% | – | – | 3% | 3% | – | 6% | – | – | – | – | – | –
6 | Cc1ccc2c(c1)c1c(n2CCCc2ccccn2)CCN(C)C1 [Compound 233, 2,3,4,5-tetrahydro-2,8-dimethyl-5-(3-(pyridin-2-yl)propyl)-1H-pyrido[4,3-b]indole] | 92% | 93% | 90% | 95% | – | – | 45% | 45% | – | 101% | – | – | – | – | – | –
7 | Cc1ccc2c(c1)c1c(n2CCc2ccc(C(=O)O)nc2)CCN(C)C1 [Compound 255] | 1% | 11% | −8% | 2% | – | – | -15% | -15% | – | 11% | – | – | – | – | – | –
8 | Cc1ccc(CCn2c3c(c4cc(C(=O)O)ccc42)CNCC3)cn1 [Compound 274, 2,3,4,5-tetrahydro-5-(2-(6-methylpyridin-3-yl)ethyl)-1H-pyrido[4,3-b]indole-8-carboxylic acid] | 6% | −5% | 7% | −2% | – | – | – | -2% | – | −3% | – | – | – | – | – | –
9 | CN1CCc2c(c3ccccc3n2CCc2ccccn2)C1 [Compound 329, 2,3,4,5-tetrahydro-2-methyl-5-(2-(pyridin-2-yl)ethyl)-1H-pyrido[4,3-b]indole] | 70% | 54% | 37% | 15% | – | – | – | 16% | – | 78% | – | – | – | – | – | –
10 | Cc1ccc2c(c1)c1c(n2CCc2ccc(C)nc2)CC[N+](C)([O-])C1 (stereo not drawn) [Example 93, 2,8-dimethyl-5-(2-(6-methylpyridin-3-yl)ethyl)-2,3,4,5-tetrahydro-1H-pyrido[4,3-b]indole 2-oxide] | – | – | – | – | – | – | – | – | – | – | 4 | 9 | 1 | 11 | 19 | 35
